Measured values published in paper PMC11237694, “Novel pentafluorosulfanyl-containing triclocarban analogs selectively kill Gram-positive bacteria” (Microbiology Spectrum, 2024).
Values after ≈ are worked out from the molar mass of the structure shown. Blank lines part the entries; values can stand above or below the molecule they belong to.

Assays:
[1] = test system: MRSA ATCC 33591; assay: Planktonic susceptibility (MIC/MBC), 96-well broth microdilution; format: cell-based, methicillin-resistant S. aureus; conditions: Staphylococcus aureus, MRSA reference strain; for MIC: planktonic, overnight 37°C in MHB
Protocol: (§1) All bacterial strains subjected to testing had been stored at −70°C prior to the experiment. The experiment commenced by streaking small amounts of the frozen bacterial samples onto Muller-Hinton agar (MHA) culture medium (BD Bacto, Oxoid, Basingstoke, UK Cat# X296B) and allowing for overnight incubation. Bacteria were re-cultured on MHA plates as required to confirm colony morphology and lack of contamination. Strains tested were P. aeruginosa ATCC 27853, E. coli ATCC 25922, Staphylococcus aureus ATCC 25923, MRSA ATCC 33591, S. epidermidis ATCC 12228, Klebsiella pneumoniae ATCC, P. mirabilis ATCC 35659, and 10 clinical isolates of MRSA from Foothills Hospital, Calgary, Canada. To prepare for susceptibility testing, a protocol modified from Lemire et al was used ([28]). MHB was swab-inoculated from MHA colonies and shake-incubated until turbid. Dilution of the broth with 0.9% saline was performed as necessary to match a 1.0 McFarland standard.
(§2) MIC and MBC assessments were conducted on all bacterial strains using 96-well microtiter plates. To prepare the wells for bacteria, serial dilutions of the antibacterial agents were carried out along the rows of two microtiter plates. The antibacterials were 2-fold diluted with Mueller-Hinton broth (MHB) in each column, reaching a volume of 75 µL. The 1.0 McFarland standard was diluted 15-fold in MHB, and 75 µL of inoculum was added to the wells treated with antibacterials, resulting in a total volume of 150 µL. The microtiter plates were covered and then shake-incubated overnight at 150 rpm and 37°C. MIC was determined based on visible bacterial growth. […] MBC was determined by transferring 3 µL of culture from all MIC microtiter plate wells to 147 µL of Mueller-Hinton broth in fresh plates. These plates were shake-incubated overnight at 150 rpm and 37°C, and bacterial growth was visually inspected.

[2] = test system: Klebsiella pneumoniae ATCC; assay: as above; format: cell-based; conditions: K. pneumonia; for MIC: planktonic, overnight 37°C in MHB
Protocol: as §1
(§3) MIC and MBC assessments were conducted on all bacterial strains using 96-well microtiter plates. To prepare the wells for bacteria, serial dilutions of the antibacterial agents were carried out along the rows of two microtiter plates. The antibacterials were 2-fold diluted with Mueller-Hinton broth (MHB) in each column, reaching a volume of 75 µL. The 1.0 McFarland standard was diluted 15-fold in MHB, and 75 µL of inoculum was added to the wells treated with antibacterials, resulting in a total volume of 150 µL. The microtiter plates were covered and then shake-incubated overnight at 150 rpm and 37°C. MIC was determined based on visible bacterial growth. In cases of antibacterial opacity or ambiguous results, streaking of well cultures on MHA, overnight incubation, and subsequent comparison with controls were performed. MBC was determined by transferring 3 µL of culture from all MIC microtiter plate wells to 147 µL of Mueller-Hinton broth in fresh plates. These plates were shake-incubated overnight at 150 rpm and 37°C, and bacterial growth was visually inspected.

[3] = test system: Staphylococcus aureus ATCC 25923; assay: as above; format: cell-based; conditions: Staphylococcus aureus, ATCC25923, S. aureus; for MIC: planktonic, overnight 37°C in MHB
Protocol: as §1, §3

[4] = test system: P. mirabilis ATCC 35659; assay: as above; format: cell-based; conditions: Proteus mirabilis; for MBC: ATCC35659; for MIC: ATCC35659, planktonic, overnight 37°C in MHB
Protocol: as §1, §3

[5] = test system: 10 clinical isolates of MRSA from Foothills Hospital, Calgary; assay: Planktonic susceptibility (MIC/MBC) of MRSA clinical isolates; format: cell-based, methicillin-resistant S. aureus; conditions: Staphylococcus aureus
Protocol: as §1, §2

[6] = test system: S. epidermidis ATCC 12228; assay: Planktonic susceptibility (MIC/MBC), 96-well broth microdilution; format: cell-based, Staphylococcus epidermidis; conditions: Staphylococcus epidermidis; for MBC: ATCC12228; for MIC: ATCC12228, planktonic, overnight 37°C in MHB
Protocol: as §1, §3

MIC [1]: 610 µM (≈ 325 µg/mL)
MIC [2]: > 5000 µM
MIC [3]: 76 µM (≈ 40.5 µg/mL)
MIC [4]: > 5000 µM
Structure (SMILES): O=C(Nc1cc(S(F)(F)(F)(F)F)ccc1Cl)Nc1cc(S(F)(F)(F)(F)F)ccc1Cl [EBP-36, 1,3-bis(2-chloro-5-pentafluoro-λ^6-sulfanyl)urea]
MBC [1]: 9800 µM (≈ 5230 µg/mL)
MBC [2]: > 5000 µM
MBC [3]: 78000 µM (≈ 41600 µg/mL)
MBC [4]: > 5000 µM

MIC [1]: 4900 µM (≈ 2110 µg/mL)
MIC [2]: > 5000 µM
MIC [3]: 2400 µM (≈ 1030 µg/mL)
MIC [4]: > 5000 µM
Structure (SMILES): O=C(Nc1ccc2nnsc2c1)Nc1cc(S(F)(F)(F)(F)F)ccc1Cl [EPB-23, 3-(1,2,3-benzothiadiazol-6-yl)-1-(2-chloro-5-pentafluoro-λ^6-sulfanyl)urea]
MBC [1]: 39000 µM (≈ 16800 µg/mL)
MBC [2]: > 5000 µM
MBC [3]: 20000 µM (≈ 8620 µg/mL)
MBC [4]: > 5000 µM

MIC [2]: > 5000 µM
MIC [3]: 9800 µM (≈ 4220 µg/mL)
MIC [4]: > 5000 µM
Structure (SMILES): O=C(Nc1ccc(Cl)c(S(F)(F)(F)(F)F)c1)Nc1ccc2nnsc2c1 [EBP-25, 3-(1,2,3-benzothiadiazol-6-yl)-1-(4-chloro-3-pentafluoro-λ^6-sulfanyl)urea]
MBC [2]: > 5000 µM
MBC [3]: 78000 µM (≈ 33600 µg/mL)
MBC [4]: > 5000 µM

MIC [2]: > 5000 µM
MIC [4]: > 5000 µM
Structure (SMILES): O=C(Nc1ccc(S(F)(F)(F)(F)F)cc1)Nc1ccc2nnsc2c1 [EPB-21, 3-(1,2,3-benzothiadiazol-6-yl)-1-(4-pentafluoro-λ^6-sulfanyl)urea]
MBC [2]: > 5000 µM
MBC [4]: > 5000 µM

MIC [1]: 150 µM (≈ 61.1 µg/mL)
MIC [2]: > 5000 µM
MIC [3]: 480 µM (≈ 195 µg/mL)
MIC [4]: 625 µM (≈ 254 µg/mL)
MIC [6]: 1200 µM (≈ 489 µg/mL)
Structure (SMILES): O=C(Nc1ccc(Cl)cc1)Nc1cc(S(F)(F)(F)(F)F)ccc1Cl [EBP-40, 1-(2-Chloro-5-(pentafluoro-λ^6-sulfanyl)phenyl)-3-(4-chlorophenyl)urea]
MBC ([5]; MRSA #1 clinical isolate): 1200 µM (≈ 489 µg/mL)
MIC ([5]; MRSA #1 clinical isolate): 20 µM (≈ 8.14 µg/mL)
MBC ([5]; MRSA #2 clinical isolate): 40 µM (≈ 16.3 µg/mL)
MIC ([5]; MRSA #2 clinical isolate): 20 µM (≈ 8.14 µg/mL)
MBC ([5]; MRSA #3 clinical isolate): 160 µM (≈ 65.2 µg/mL)
MIC ([5]; MRSA #3 clinical isolate): 80 µM (≈ 32.6 µg/mL)
MBC ([5]; MRSA #4 clinical isolate): 160 µM (≈ 65.2 µg/mL)
MIC ([5]; MRSA #4 clinical isolate): 40 µM (≈ 16.3 µg/mL)
MBC ([5]; MRSA #5 clinical isolate): 40 µM (≈ 16.3 µg/mL)
MIC ([5]; MRSA #5 clinical isolate): 20 µM (≈ 8.14 µg/mL)
MBC ([5]; MRSA #6 clinical isolate): 160 µM (≈ 65.2 µg/mL)
MIC ([5]; MRSA #6 clinical isolate): 40 µM (≈ 16.3 µg/mL)
MBC ([5]; MRSA #7 clinical isolate): 80 µM (≈ 32.6 µg/mL)
MIC ([5]; MRSA #7 clinical isolate): 40 µM (≈ 16.3 µg/mL)
MBC ([5]; MRSA #8 clinical isolate): 80 µM (≈ 32.6 µg/mL)
MIC ([5]; MRSA #8 clinical isolate): 40 µM (≈ 16.3 µg/mL)
MBC ([5]; MRSA #9 clinical isolate): 80 µM (≈ 32.6 µg/mL)
MIC ([5]; MRSA #9 clinical isolate): 20 µM (≈ 8.14 µg/mL)
MBC [1]: 610 µM (≈ 248 µg/mL)
MBC [2]: > 5000 µM
MBC [3]: 1200 µM (≈ 489 µg/mL)
MBC [4]: 625 µM (≈ 254 µg/mL)
MBC [6]: 900 µM (≈ 366 µg/mL)

MIC [1]: 1200 µM (≈ 557 µg/mL)
MIC [2]: > 5000 µM
MIC [3]: 1200 µM (≈ 557 µg/mL)
MIC [4]: > 5000 µM
Structure (SMILES): O=C(Nc1cccc(S(F)(F)(F)(F)F)c1)Nc1cccc(S(F)(F)(F)(F)F)c1 [EBP-53, 1,3-bis(3-(Pentafluoro-λ^6-sulfanyl)phenyl) urea]
MBC [2]: > 5000 µM
MBC [4]: > 5000 µM

MIC [1]: 1.9 µM (≈ 0.793 µg/mL)
MIC [2]: > 5000 µM
MIC [3]: 3.8 µM (≈ 1.59 µg/mL)
MIC [4]: 625 µM (≈ 261 µg/mL)
MIC [6]: 0.2 µM (≈ 0.0834 µg/mL)
Structure (SMILES): O=C(Nc1ccc(Cl)c(C(F)(F)F)c1)Nc1ccc(Cl)c(C(F)(F)F)c1 [EBP-34, 1,3-di(4-chloro-3-(trifluoromethyl)phenyl)urea]
MBC ([5]; MRSA #1 clinical isolate): < 2 µM
MIC ([5]; MRSA #1 clinical isolate): 600 µM (≈ 250 µg/mL)
MBC ([5]; MRSA #2 clinical isolate): < 2 µM
MIC ([5]; MRSA #2 clinical isolate): < 2 µM
MBC ([5]; MRSA #3 clinical isolate): 80 µM (≈ 33.4 µg/mL)
MIC ([5]; MRSA #3 clinical isolate): 80 µM (≈ 33.4 µg/mL)
MBC ([5]; MRSA #4 clinical isolate): < 2 µM
MIC ([5]; MRSA #4 clinical isolate): < 2 µM
MBC ([5]; MRSA #5 clinical isolate): 10 µM (≈ 4.17 µg/mL)
MIC ([5]; MRSA #5 clinical isolate): 10 µM (≈ 4.17 µg/mL)
MBC ([5]; MRSA #6 clinical isolate): 10 µM (≈ 4.17 µg/mL)
MIC ([5]; MRSA #6 clinical isolate): 10 µM (≈ 4.17 µg/mL)
MBC ([5]; MRSA #7 clinical isolate): 10 µM (≈ 4.17 µg/mL)
MIC ([5]; MRSA #7 clinical isolate): < 2 µM
MBC ([5]; MRSA #8 clinical isolate): 5 µM (≈ 2.09 µg/mL)
MIC ([5]; MRSA #8 clinical isolate): 5 µM (≈ 2.09 µg/mL)
MBC ([5]; MRSA #9 clinical isolate): < 2 µM
MIC ([5]; MRSA #9 clinical isolate): < 2 µM
MBC ([5]; MRSA #10 clinical isolate): 10 µM (≈ 4.17 µg/mL)
MIC ([5]; MRSA #10 clinical isolate): < 2 µM
MBC [1]: 61 µM (≈ 25.4 µg/mL)
MBC [2]: > 5000 µM
MBC [3]: 10 µM (≈ 4.17 µg/mL)
MBC [4]: 625 µM (≈ 261 µg/mL)
MBC [6]: 10 µM (≈ 4.17 µg/mL)

MIC [1]: 610 µM (≈ 242 µg/mL)
MIC [2]: > 5000 µM
MIC [3]: 610 µM (≈ 242 µg/mL)
MIC [4]: > 5000 µM
Structure (SMILES): O=C(Nc1cccc(S(F)(F)(F)(F)F)c1)Nc1ccc2nnsc2c1 [EPB-22, 3-(1,2,3-benzothiadiazol-6-yl)-1-(3-pentafluoro-λ^6-sulfanyl)urea]
MBC [1]: 4900 µM (≈ 1940 µg/mL)
MBC [2]: > 5000 µM
MBC [3]: 20000 µM (≈ 7930 µg/mL)
MBC [4]: > 5000 µM
